In patent US8470825B2, “Diazabenzo[de] anthracen-3-one compounds and methods for inhibiting PARP” (Eisai Inc., priority 2005, dated 2013):
Values belong to the molecule of their own block, whether it stands above or below them.

What was measured:
[1] = molecular target: purified recombinant human PARP (Homo sapiens (Human), UniProt P09874); assay: PARP enzyme assay (IC50); format: biochemical; conditions: approximate IC50 values
Protocol: A convenient method to determine IC50 of a PARP inhibitor compound is a PARP assay using purified recombinant human PARP from Trevigan (Gaithersburg, MD), as follows: The PARP enzyme assay is set up on ice in a volume of 100 microliters consisting of 100 mM Tris-HCl (pH 8.0), 1 mM MgCl2, 28 mM KCl, 28 mM NaCl, 0.1 mg/ml of DNase I activated herring sperm DNA (Sigma, Mo.), 3.0 micromolar [3H]nicotinamide adenine dinucleotide (470 mci/mmole), 7 micrograms/ml PARP enzyme, and various concentrations of the compounds to be tested. The reaction is initiated by incubating the mixture at 25° C. After 15 minutes of incubation, the reaction is terminated by adding 500 microliters of ice cold 20% (w/v) trichloroacetic acid. The precipitate formed is transferred onto a glass fiber filter (Packard Unifilter-GF/B) and washed three times with ethanol. After the filter is dried, the radioactivity is determined by scintillation counting.

[2] = Sensory nerve conduction velocity (SNCV) in cisplatin-induced neuropathy in rats; format: in vivo; conditions: for SNCV at the end of the experiment, mean: tail nerve; for tail nerve conduction velocity impairment due to chronic cisplatin treatment: co-administration of compound 4i 40 mg/kg PO daily
Protocol: In this experiment, female Wistar Hannover rats were dosed with neuropathy inducing doses of cisplatin (2 mg/kg IP; twice a week for 4 weeks) with and without compound 4i (40 mg/kg PO daily). The rats were monitored for changes in sensory nerve conduction velocity (SNCV) in the caudal nerve at baseline (pre-cisplatin dosing) and after treatment. Additionally, dorsal root ganglion and sciatic nerve specimens with morphometric analysis on dorsal root ganglion neurons (somatic, nuclear and nucleolar size) were assessed histopathologically. At the beginning and end of the treatment period, each animal underwent the determination of SNCV in the tail as previously described in Cavaletti et al., “Protective Effects of glutathione on cisplatin neurotoxicity in rats,” Int. J. Radiation Oncology, 29, 771-776 (1994) and […] et al., “Low-Dose Glutathione administration in the prevention of cisplatin-induced peripheral neuropathy in rats,” Neuro toxicology, 15, 701-704 (1994). The antidromic SNCV in the tail nerve was assessed by placing recording ring electrodes distally in the tail, while the stimulating ring electrodes were placed 5 cm and 10 cm proximally with respect to the recording point. The latencies of the potentials recorded at the 2 sites after nerve stimulation were determined (peak-to-peak) and nerve conduction velocity was calculated accordingly. The differences in nerve conduction velocity, and in morphometric data obtained in dorsal root ganglia neurons during the experiment were statistically evaluated using the analysis of variance (ANOVA) and the Tukey-Kramer post-test (significance level set at p<0.05).

[3] = test system: DRG neurons; assay: DRG neuron morphometry in cisplatin-induced neuropathy in rats; format: in vivo
Protocol: In this experiment, female Wistar Hannover rats were dosed with neuropathy inducing doses of cisplatin (2 mg/kg IP; twice a week for 4 weeks) with and without compound 4i (40 mg/kg PO daily). The rats were monitored for changes in sensory nerve conduction velocity (SNCV) in the caudal nerve at baseline (pre-cisplatin dosing) and after treatment. Additionally, dorsal root ganglion and sciatic nerve specimens with morphometric analysis on dorsal root ganglion neurons (somatic, nuclear and nucleolar size) were assessed histopathologically. Left L5 dorsal-root ganglia (DRG) of rats from each group were obtained from the sacrificed animals and processed according to previously reported protocols [Cavaletti et al.: […] et al]], resin embedded, and used for light and electron microscope observations and morphometry. On 1 μm thick semithin sections, morphometric determinations of the cross sectional area of the somata, nuclei and nucleoli of DRG neurons were performed using an image analysts software (Image J, NIH). The differences in nerve conduction velocity, and in morphometric data obtained in dorsal root ganglia neurons during the experiment were statistically evaluated using the analysis of variance (ANOVA) and the Tukey-Kramer post-test (significance level set at p<0.05).

[4] = test system: Murine melanoma B16 cells; assay: Survival of mice bearing intracranial B16 melanoma, compound + temozolomide; format: in vivo; conditions: for MST: B16 melanoma in brain; for ILS vs TMZ: increase in lifespan
Protocol: The intracranial transplantation procedure was performed as described in Tentori L. et al., “Effects of single or split exposure of leukemic cells to temozolomide, combined with poly(ADP-ribose) polymerase inhibitors on cell growth, chromosomal aberrations and base excision repair components,” Cancer Chemother Pharmacol, 47, 361-9 (2001). Murine melanoma B16 cells (10^4) were injected intracranially (ic) into male B6D2F1 (C578L/6×DBA/2) mice. Histological evaluation of tumor growth in the brain was performed 1-5 days after tumor challenge, in order to determine the timing of treatment.
Compound 4i was dissolved in 70 mM PBS without potassium and administered po 1 h before temozolomide (TMZ). TMZ was dissolved in dimethyl-sulfoxide (40 mg/ml), diluted in saline (5 mg/ml) and administered ip at a dose of 100 mg/Kg for five days. Mice were treated with compound 4i by oral gavages once a day for five days, at doses of 10 or 40 mg/kg/day. Median survival times (MST) were determined and the percentage of increase in lifespan (ILS) was calculated as: {[MST (days) of treated mice/MST (days) of control mice]−1}×100. Efficacy of treatments was evaluated by comparing survival curves between treated and control groups.

[5] = test system: B16 melanoma; assay: Subcutaneous B16 melanoma growth in mice, compound + temozolomide; format: in vivo; conditions: Compound 4i 40 mg/kg po + TMZ 100 mg/kg ip once a day for five days; s.c. tumor; day 9 to day 23
Protocol: The efficacy of TMZ±Compound 4i treatment was also evaluated on melanoma growing subcutaneously (s.c.) in mice. For this purpose B16 cells (2.5×10^5) were inoculated s.c. in the flank of the animal. Tumors were measured with calipers and volume calculated according to the formula: [(width)^2×length]/2. Drug treatment started 6 days after challenge, when the volume of tumor nodules reached 100-150 mm^3. Compound 4i (40 mg/kg po) was administered at 20 min before temozolomide (100 mg/kg ip) once a day for five days. Melanoma growth was monitored by measuring tumor nodules every 3 days for 3 weeks.

[6] = Tukey's multiple comparison test

Chain of purified recombinant human PARP (P09874 whole entry): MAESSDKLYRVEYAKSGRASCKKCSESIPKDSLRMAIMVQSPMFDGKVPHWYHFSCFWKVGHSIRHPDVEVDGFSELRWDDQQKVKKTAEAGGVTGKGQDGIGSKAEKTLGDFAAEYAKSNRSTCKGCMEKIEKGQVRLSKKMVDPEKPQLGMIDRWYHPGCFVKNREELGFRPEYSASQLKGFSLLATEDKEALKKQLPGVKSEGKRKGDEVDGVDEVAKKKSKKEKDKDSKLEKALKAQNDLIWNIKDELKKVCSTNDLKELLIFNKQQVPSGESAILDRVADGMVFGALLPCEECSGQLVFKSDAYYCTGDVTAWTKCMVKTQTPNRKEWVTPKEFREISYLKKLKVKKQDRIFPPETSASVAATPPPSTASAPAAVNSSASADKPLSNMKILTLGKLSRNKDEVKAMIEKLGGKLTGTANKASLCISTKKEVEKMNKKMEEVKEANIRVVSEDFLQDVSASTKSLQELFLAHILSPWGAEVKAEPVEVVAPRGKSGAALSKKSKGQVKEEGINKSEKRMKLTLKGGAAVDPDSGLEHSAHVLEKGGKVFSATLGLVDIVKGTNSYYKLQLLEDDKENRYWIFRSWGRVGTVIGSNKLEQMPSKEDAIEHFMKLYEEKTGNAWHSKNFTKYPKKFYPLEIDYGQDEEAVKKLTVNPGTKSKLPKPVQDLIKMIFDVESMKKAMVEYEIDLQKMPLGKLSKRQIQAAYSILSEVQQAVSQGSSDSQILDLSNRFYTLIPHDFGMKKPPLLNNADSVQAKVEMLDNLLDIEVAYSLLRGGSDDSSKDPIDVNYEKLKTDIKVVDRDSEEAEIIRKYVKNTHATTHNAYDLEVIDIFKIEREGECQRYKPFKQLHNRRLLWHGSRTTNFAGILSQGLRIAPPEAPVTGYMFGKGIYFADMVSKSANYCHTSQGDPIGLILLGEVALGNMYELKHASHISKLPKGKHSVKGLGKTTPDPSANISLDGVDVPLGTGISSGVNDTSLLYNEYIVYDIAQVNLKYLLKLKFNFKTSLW

IC50 [1]: 20 nM
Structure (SMILES): COCCN1CCN(Cc2ccc3c(c2)-c2n[nH]c(=O)c4cccc(c24)O3)CC1 [Compound 4b, 10-[4-(2-Methoxy-ethyl)-piperazin-1-ylmethyl]-2H-7-oxa-1,2-diaza-benzo[de]anthracen-3-one]

IC50 [1]: 50 nM
Structure (SMILES): O=c1[nH]nc2c3c(cccc13)Oc1ccc(CNCCN3CCOCC3)cc1-2 [Compound 4q, 10-[(2-Morpholin-4-yl-ethylamino)-methyl]-2H-7-oxa-1,2-diaza-benzo[de]anthracen-3-one]

IC50 [1]: 100 nM
Structure (SMILES): O=c1[nH]nc2c3c(cccc13)Oc1ccc(CN3CCC(O)C3)cc1-2 (stereo not shown) [Compound 4l, 10-(3-Hydroxy-pyrrolidin-1-ylmethyl)-2H-7-oxa-1,2-diaza-benzo[de]anthracen-3-one]

IC50 [1]: 300 nM
Structure (SMILES): CC(C)N(Cc1ccc2c(c1)-c1n[nH]c(=O)c3cccc(c13)O2)C(C)C [Compound 4k, 10-[(Diisopropylamino)-methyl]-2H-7-oxa-1,2-diaza-benzo[de]anthracen-3-one]

IC50 [1]: 120 nM
Structure (SMILES): O=C1CCN(Cc2ccc3c(c2)-c2n[nH]c(=O)c4cccc(c24)O3)CC1 [Compound 4s, 10-(4-Oxo-piperidin-1-ylmethyl)-2H-7-oxa-1,2-diaza-benzo[de]anthracen-3-one]

IC50 [1]: 100 nM
Structure (SMILES): CCN(CCO)Cc1ccc2c(c1)-c1n[nH]c(=O)c3cccc(c13)O2 [Compound 4j, 10-{[Ethyl-(2-hydroxy-ethyl)-amino]-methyl}-2H-7-oxa-1,2-diaza-benzo[de]anthracen-3-one]

Morphometry on DRG, Nu (nucleus), mean ([3]; CDDP alone): 114.3 μm^2
Morphometry on DRG, Nucl (nucleolus), mean ([3]; CDDP alone): 7.651 μm^2
Morphometry on DRG, Soma, mean ([3]; CDDP alone): 683.4 μm^2
Structure (SMILES): [NH2][Pt]([NH2])([Cl])[Cl] [CDDP, Cisplatin, reference compound]
SNCV at the end of the experiment, mean ([2]; CDDP alone 2 mg/kg IP twice a week for 4 weeks): 28.62 m/sec

Structure (SMILES): Cn1nnc2c(C(N)=O)ncn2c1=O [TMZ, temozolomide, reference compound]
MST ([4]; TMZ alone 100 mg/kg ip x 5): 14 days

IC50 [1]: 100 nM
Structure (SMILES): O=c1[nH]nc2c3c(cccc13)Oc1ccc(CN3CCC(CCO)CC3)cc1-2 [Compound 4m, 10-[4-(2-Hydroxy-ethyl)-piperidin-1-ylmethyl]-2H-7-oxa-1,2-diaza-benzo[de]anthracen-3-one]

Structure (SMILES): O=c1[nH]nc2c3c(cccc13)Oc1ccc(CN3CCC(O)CC3)cc1-2 [Compound 4i]
IC50 [1]: 40 nM
MST ([4]; Compound 4i 10 mg/kg po + TMZ 100 mg/kg ip x 5 days): 17 days
ILS vs TMZ ([4]; Compound 4i 10 mg/kg po + TMZ x 5): 21%
MST ([4]; Compound 4i 40 mg/kg po + TMZ 100 mg/kg ip x 5 days): 21 days
ILS vs TMZ ([4]; Compound 4i 40 mg/kg po + TMZ x 5): 50%
mean survival time vs TMZ as single agent ([4]; compound 4i + TMZ combination, mice bearing B16 melanoma): significantly higher
growth of B16 melanoma vs TMZ alone [5]: significantly reduced
SNCV at the end of the experiment, mean ([2]; CDDP 2 mg/kg IP twice a week for 4 weeks + 4i 40 mg/kg PO daily): 34.08 m/sec
SNCV Mean Diff., CDDP vs CDDP + 4i [2, 6]: −5.460
tail nerve conduction velocity impairment due to chronic cisplatin treatment [2]: attenuate the deficits in nerve conduction velocity
tail nerve conduction velocity impairment due to chronic cisplatin treatment ([2]; listed as compound 4i): statistically significant reduction
Morphometry on DRG, Nu (nucleus), mean ([3]; CDDP + 4i): 121.8 μm^2
Morphometry on DRG, Nucl (nucleolus), mean ([3]; CDDP + 4i): 8.069 μm^2
Morphometry on DRG, Soma, mean ([3]; CDDP + 4i): 822.1 μm^2
Nucleolus Mean Diff., CDDP vs CDDP + 4i [3, 6]: −0.4177
Soma Mean Diff., CDDP vs CDDP + 4i [3, 6]: −138.7
effect on DRG neuron morphometry ([3]; cisplatin-treated rats with compound 4i): significant effect only on the somatic size of DRG neurons

IC50 [1]: 50 nM
Structure (SMILES): O=c1[nH]nc2c3c(cccc13)Oc1ccc(CN3CCCC(O)C3)cc1-2 (stereo not shown) [Compound 4o, 10-(3-Hydroxy-piperidin-1-ylmethyl)-2H-7-oxa-1,2-diaza-benzo[de]anthracen-3-one]

IC50 [1]: 20 nM
Structure (SMILES): O=C1CN(Cc2ccc3c(c2)-c2n[nH]c(=O)c4cccc(c24)O3)CCN1 [Compound 4d, 10-(3-Oxo-piperazin-1-ylmethyl)-2H-7-oxa-1,2-diaza-benzo[de]anthracen-3-one]

IC50 [1]: 30 nM
Structure (SMILES): O=c1[nH]nc2c3c(cccc13)Oc1ccc(CN3CC(O)C3)cc1-2 [Compound 4p, 10-(3-Hydroxy-azetidin-1-ylmethyl)-2H-7-oxa-1,2-diaza-benzo[de]anthracen-3-one]

IC50 [1]: 100 nM
Structure (SMILES): CCN(CC)CCN(C)Cc1ccc2c(c1)-c1n[nH]c(=O)c3cccc(c13)O2 [Compound 4h, 10-{[(2-Diethylamino-ethyl)-methyl-amino]-methyl}-2H-7-oxa-1,2-diaza-benzo[de]anthracen-3-one]

IC50 [1]: 30 nM
Structure (SMILES): O=c1[nH]nc2c3c(cccc13)Oc1ccc(CN3CCN(c4ncccn4)CC3)cc1-2 [Compound 4c, 10-(4-Pyrimidin-2-yl-piperazin-1-ylmethyl)-2H-7-oxa-1,2-diaza-benzo[de]anthracen-3-one]

IC50 [1]: 30 nM
Structure (SMILES): O=c1[nH]nc2c3c(cccc13)Oc1ccc(CN[C@H]3CC[C@H](O)CC3)cc1-2 [Compound 4r, 10-[(4-Hydroxy-cyclohexylamino)-methyl]-2H-7-oxa-1,2-diaza-benzo[de]anthracen-3-one]

IC50 [1]: 100 nM
Structure (SMILES): O=c1[nH]nc2c3c(cccc13)Oc1ccc(CN3CCC4(CC3)OCCO4)cc1-2 [Compound 4n, 10-(1,4-Dioxa-8-aza-spiro[4.5]dec-8-ylmethyl)-2H-7-oxa-1,2-diaza-benzo[de]anthracen-3-one]

IC50 [1]: 30 nM
Structure (SMILES): CC(C)N1CCN(Cc2ccc3c(c2)-c2n[nH]c(=O)c4cccc(c24)O3)CC1 [Compound 4a, 10-(4-Isopropyl-piperazin-1-ylmethyl)2H-7-oxa-1,2-diaza-benzo[de]anthracen-3-one]
